According to patent US20250113823A1, “Arthropod Control Compositions” (priority 2022, published 2025):

Key:
[1] = tested on: Aedes aegypti; assay: Warm Body assay, mosquito landings on treated warm body; type: in vivo; conditions: for pest or weed control at 16 µg/mL / pest or weed control at 400 µg/mL / pest or weed control at 10000 µg/mL / pest or weed control at 1 % / pest or weed control at 0.04 % / pest or weed control at 0.0016 %: Aedes aegypti; for pest or weed control at 16 µg/mL / pest or weed control at 400 µg/mL / pest or weed control at 10000 µg/mL: read-out: Percentage of repellence of mosquitoes Aedes aegypti landing on the warm body; for pest or weed control at 1 %: highest tested concentration, 1% (Table 3); for pest or weed control at 1 % / pest or weed control at 0.04 %: read-out: repellence; for pest or weed control at 0.04 %: intermediate concentration of 0.04% (Table 3); for pest or weed control at 0.0016 %: lowest concentration of 0.0016% (Table 3), read-out: reduce the number of mosquito landings
Outline: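 Compounds in ethanol (100 μL, various concentrations) were applied to a sandblasted glass dish covering the warm body (28.3 cm^2), with ethanol as control. Landings were counted automatically from 30 non-blood-fed, sugar-fed Aedes aegypti Rockefeller females aged 5–10 days, under 150 lux.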

[2] = tested on: Ixodes ricinus; assay: Warm Plate assay, tick repellence; conditions: for pest or weed control at 400 µg/mL / pest or weed control at 2000 µg/mL / pest or weed control at 10000 µg/mL: Ixodes ricinus, read-out: Percentage of repellence of ticks Ixodes ricinus on the warm plate

With `C=CCOCc1ccc(O)c(OCC)c1` [compound 1479, 4-[(allyloxy)methyl]-2-ethoxyphenol] the pest or weed control at 16 µg/mL ([1]; 0.016 mg/mL (Table 3)) was 55%, the pest or weed control at 400 µg/mL ([1]; 0.4 mg/mL (Table 3)) was 89% and the pest or weed control at 10000 µg/mL ([1]; 10 mg/mL (Table 3)) was 98%. It also gave a pest or weed control at 1 % [1] greater than 90%, a pest or weed control at 0.04 % [1] greater than 75% and a pest or weed control at 0.0016 % [1] greater than 50%. It also gave a pest or weed control at 400 µg/mL [2] of 66.7%, a pest or weed control at 2000 µg/mL [2] of 100% and a pest or weed control at 10000 µg/mL [2] of 100%. The ticks repelled ([2]; concentration of 1% (Table 10)) was “repel all the ticks”, the ticks repelled ([2]; concentrations of 0.2% and 1% (Table 10)) was “repelled all ticks” and the “fraction of the tested ticks repelled” value ([2]; lowest tested concentration of 0.04% (Table 10)) was “⅔”.

For `CCOCc1ccc(O)c(OCC)c1` [compound 1482, 2-ethoxy-4-(ethoxymethyl)phenol], the pest or weed control at 16 µg/mL ([1]; 0.016 mg/mL (Table 3)) was 31%, the pest or weed control at 400 µg/mL ([1]; 0.4 mg/mL (Table 3)) was 82% and the pest or weed control at 10000 µg/mL ([1]; 10 mg/mL (Table 3)) was 96%. For the same compound, the pest or weed control at 1 % [1] was greater than 90%, the pest or weed control at 0.04 % [1] was greater than 75% and the pest or weed control at 400 µg/mL [2] was 30.8%. The pest or weed control at 2000 µg/mL [2] was 66.7%, the pest or weed control at 10000 µg/mL [2] was 100% and the ticks repelled ([2]; concentration of 1% (Table 10)) was “repel all the ticks”.

For `COc1ccc(C(C)=O)c(OC)c1` [compound 1557, 2,4-dimethoxyacetophenone], the “Percentage of repellence of mosquitoes Aedes aegypti landing on the warm body” value (from here on “Percentage of repellence … on the warm body”) ([1]; 0.016 mg/mL (Table 3)) was 81%, the “Percentage of repellence … on the warm body” value ([1]; 0.4 mg/mL (Table 3)) was 93% and the “Percentage of repellence … on the warm body” value ([1]; 10 mg/mL (Table 3)) was 96%. The “Percentage of repellence of ticks Ixodes ricinus on the warm plate” value (shortened to “Percentage of repellence … on the warm plate”) ([2]; 0.4 mg/mL (Table 10)) was 25.0%, the “Percentage of repellence … on the warm plate” value ([2]; 2 mg/mL (Table 10)) was 69.2% and the “Percentage of repellence … on the warm plate” value ([2]; 10 mg/mL (Table 10)) was 66.7%.

`COc1ccc(C=O)c(OC)c1` [compound 1558, 2,4-dimethoxybenzaldehyde] was tested, and the pest or weed control at 16 µg/mL ([1]; 0.016 mg/mL (Table 3)) was 86%, the pest or weed control at 400 µg/mL ([1]; 0.4 mg/mL (Table 3)) was 89% and the pest or weed control at 10000 µg/mL ([1]; 10 mg/mL (Table 3)) was 86%. It also gave a pest or weed control at 0.04 % [1] greater than 75%, a pest or weed control at 0.0016 % [1] greater than 50% and a pest or weed control at 400 µg/mL [2] of 16.7%. It also gave a pest or weed control at 2000 µg/mL [2] of 38.5% and a pest or weed control at 10000 µg/mL [2] of 91.7%.

For `COc1ccc(C(C)=O)c(O)c1` [compound 1559, 2-hydroxy-4-methoxyacetophenone], the “Percentage of repellence … on the warm body” value ([1]; 0.016 mg/mL (Table 3)) was 90%, the “Percentage of repellence … on the warm body” value ([1]; 0.4 mg/mL (Table 3)) was 98% and the “Percentage of repellence … on the warm body” value ([1]; 10 mg/mL (Table 3)) was 98%. For the same compound, the “Percentage of repellence … on the warm plate” value ([2]; 0.4 mg/mL (Table 10)) was 13.3%, the “Percentage of repellence … on the warm plate” value ([2]; 2 mg/mL (Table 10)) was 57.1% and the “Percentage of repellence … on the warm plate” value ([2]; 10 mg/mL (Table 10)) was 91.7%.

For `COc1ccc(C=O)c(OC)c1OC` [compound 2267, 2,3,4-trimethoxybenzaldehyde], the pest or weed control at 16 µg/mL ([1]; 0.016 mg/mL (Table 3)) was 0%, the pest or weed control at 400 µg/mL ([1]; 0.4 mg/mL (Table 3)) was 81% and the pest or weed control at 10000 µg/mL ([1]; 10 mg/mL (Table 3)) was 96%. It also gave a pest or weed control at 1 % [1] greater than 90%, a pest or weed control at 0.04 % [1] greater than 75% and a pest or weed control at 400 µg/mL [2] of 66.7%. The pest or weed control at 2000 µg/mL [2] was 86.7% and the pest or weed control at 10000 µg/mL [2] was 71.4%.
